Results as given in patent US20060052283A1, “The Sperm Binding Ligand HIPRTY and Its Involvement in Embryo Cleavage” (priority 2004, published 2006).

Tested on: mouse sperm
Assay: Phage combinatorial peptide library screening of intact live sperm
Conditions: live CB6F1 mouse sperm, 4 rounds of binding, amplification and selection, Ph.D-7 and Ph.D-12 libraries
Experimental: A mouse sperm suspension was isolated from cauda epididymides of fertile male CB6F1 mice. Briefly, the epididymides and vas deferens were dissected in a 35 mm dish containing 5 ml of CZB (pre-equilibrated at 37° C. and 5% CO2) and gently compressed to release sperm. Following a 10 minute incubation period, the epididimydes were removed and the sperm suspension incubated for a further 30 minute period. A 500 ul aliquot of the sperm suspension was removed from the top layer of media and placed in a 1.5 ml centrifuge tube. A 3 ul volume of phage combinatorial peptide library was added to this tube and the suspension incubated for 1 hour at 37 degrees. Following incubation, the sperm suspension was washed as follows. The suspension was centrifuged in a tabletop microcentrifuge at maximum speed for 1 minute and the majority of the supernatant removed. The remaining volume was re-suspended in 1 ml of media via pipetting and separated into two 500 ul aliquots in two 15 ml centrifuge tubes. A further 14 ml of CZB wash media was added to these tubes followed by 15 min incubation at room temperature. The tubes were centrifuged at 1000 g for 5 minutes and the supernatant removed down to an approximate 50 ul volume. […]
Phage DNA was isolated by several different methods. […] DNA quality and quantity was determined via agarose gel electrophoresis on vertical mini-gels with novel illumination and filters. […]

HIPRTY
binding sequence selected from combinatorial libraries: binding sequence of mouse sperm
